Measurements: patent US20230233569A1 (Revolution Medicines, Inc., priority 2020, published 2023)
Where two headings read alike, the source gives them in different places.

Columns and labels:
Assay in all cases: Ras-Raf disruption / FRET / MOA assay (BRAF RBD)
Format in all cases: biochemical
KRAS G12C = KRAS G12C (Homo sapiens, UniProt P01116+P62937, G12C); conditions: with Cyclophilin A
Outline: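 His6-K-Ras G12C-GMPPNP (12.5 nM), GST-BRAF RBD (50 nM) and tagless Cyclophilin A (25 μM) incubated 3 h at 25 °C with compound (10-point 3-fold series from 30 μM), pH 7.3 HEPES buffer. Anti-His Eu/anti-GST APC added for 1.5 h; decreased TR-FRET ratio vs DMSO gives IC50.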

KRAS G13D = KRAS G13D (Homo sapiens, UniProt P01116+P62937, G13D); conditions: with Cyclophilin A
Sequence of KRAS G13D (P01116 1-169 isoform P01116-2 G13D limits assumed): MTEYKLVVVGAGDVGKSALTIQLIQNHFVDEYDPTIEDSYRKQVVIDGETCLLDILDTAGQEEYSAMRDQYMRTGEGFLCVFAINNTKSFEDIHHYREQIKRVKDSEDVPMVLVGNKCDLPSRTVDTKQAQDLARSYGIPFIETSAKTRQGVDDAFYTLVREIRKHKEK
Sequence of KRAS G13D (P62937 whole entry): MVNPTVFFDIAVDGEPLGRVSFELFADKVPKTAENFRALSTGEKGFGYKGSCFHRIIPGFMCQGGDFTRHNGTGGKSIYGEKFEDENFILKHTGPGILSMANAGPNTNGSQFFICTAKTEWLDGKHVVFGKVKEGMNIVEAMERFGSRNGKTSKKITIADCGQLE
Outline: (§1)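 TR-FRET in 25 mM HEPES pH 7.3, 100 mM NaCl, 5 mM MgCl2, 0.1% BSA, 0.002% Tween20 with 25 μM Cyclophilin A, 12.5 nM His6-Ras-GMPPNP, 50 nM GST-BRAF RBD; compound 10-point 3-fold series from 30 μM. After 3 h at 25 °C, Eu anti-His/APC anti-GST added for 1.5 h; IC50 from ratio decrease versus DMSO.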

KRAS G12S = KRAS G12S (Homo sapiens, UniProt P01116+P62937, G12S); conditions: with Cyclophilin A
Sequence of KRAS G12S (P01116 1-169 isoform P01116-2 G12S limits assumed): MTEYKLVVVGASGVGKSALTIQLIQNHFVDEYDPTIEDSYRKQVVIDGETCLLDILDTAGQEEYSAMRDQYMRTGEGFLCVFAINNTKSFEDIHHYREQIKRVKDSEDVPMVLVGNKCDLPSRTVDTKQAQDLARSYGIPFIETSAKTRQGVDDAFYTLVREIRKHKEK
Sequence of KRAS G12S (P62937 whole entry): as the sequence (P62937 whole entry) above
Outline: as §1

NRAS G12C = NRAS G12C (Homo sapiens, UniProt P01111+P62937, G12C)
Sequence of NRAS G12C (P01111 whole entry G12C): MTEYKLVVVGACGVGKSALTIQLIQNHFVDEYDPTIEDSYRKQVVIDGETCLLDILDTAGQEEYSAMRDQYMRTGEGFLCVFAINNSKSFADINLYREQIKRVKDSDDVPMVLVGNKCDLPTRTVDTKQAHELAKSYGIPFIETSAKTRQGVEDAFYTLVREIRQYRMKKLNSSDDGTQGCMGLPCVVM
Sequence of NRAS G12C (P62937 whole entry): as the sequence (P62937 whole entry) above
Outline: as §1

KRAS G12V = KRAS G12V (Homo sapiens, UniProt P01116+P62937, G12V); conditions: with Cyclophilin A
Sequence of KRAS G12V (P01116 1-169 isoform P01116-2 G12V limits assumed): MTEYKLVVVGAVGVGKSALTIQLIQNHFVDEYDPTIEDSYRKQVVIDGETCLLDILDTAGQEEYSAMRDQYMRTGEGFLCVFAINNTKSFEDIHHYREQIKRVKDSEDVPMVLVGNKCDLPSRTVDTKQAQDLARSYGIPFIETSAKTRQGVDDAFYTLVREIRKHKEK
Sequence of KRAS G12V (P62937 whole entry): as the sequence (P62937 whole entry) above
Outline: as §1

KRAS WT = KRAS WT (Homo sapiens, UniProt P01116+P62937); conditions: with Cyclophilin A
Sequence of KRAS WT (P01116 1-169 isoform P01116-2 limits assumed): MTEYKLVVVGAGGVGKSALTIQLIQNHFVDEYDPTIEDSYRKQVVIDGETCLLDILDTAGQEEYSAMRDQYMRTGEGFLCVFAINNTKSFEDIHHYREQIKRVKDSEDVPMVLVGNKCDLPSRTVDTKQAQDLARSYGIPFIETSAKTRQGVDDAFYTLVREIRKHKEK
Sequence of KRAS WT (P62937 whole entry): as the sequence (P62937 whole entry) above
Outline: as §1

KRAS G12D = KRAS G12D (Homo sapiens, UniProt P01116+P62937, G12D); conditions: with Cyclophilin A
Sequence of KRAS G12D (P01116 1-169 isoform P01116-2 G12D limits assumed): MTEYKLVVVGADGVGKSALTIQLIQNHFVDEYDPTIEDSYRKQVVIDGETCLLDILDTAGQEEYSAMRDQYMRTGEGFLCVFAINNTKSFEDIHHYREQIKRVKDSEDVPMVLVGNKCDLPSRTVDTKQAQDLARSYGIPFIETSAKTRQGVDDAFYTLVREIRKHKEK
Sequence of KRAS G12D (P62937 whole entry): as the sequence (P62937 whole entry) above
Outline: as §1

KRAS G13C = KRAS G13C (Homo sapiens, UniProt P01116+P62937, G13C); conditions: with Cyclophilin A
Sequence of KRAS G13C (P01116 1-169 isoform P01116-2 G13C limits assumed): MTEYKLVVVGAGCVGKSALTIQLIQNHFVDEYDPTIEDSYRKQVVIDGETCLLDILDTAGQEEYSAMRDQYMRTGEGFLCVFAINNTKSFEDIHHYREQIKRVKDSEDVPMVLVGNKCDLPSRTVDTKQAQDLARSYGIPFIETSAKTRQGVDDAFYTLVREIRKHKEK
Sequence of KRAS G13C (P62937 whole entry): as the sequence (P62937 whole entry) above
Outline: as §1

[1] = KRAS G12C FRET data IC50, Ras-Raf disruption
[2] = KRAS G13D FRET data IC50, Ras-Raf disruption
[3] = KRAS G12S FRET data IC50, Ras-Raf disruption
[4] = NRAS G12C FRET data IC50, NRAS G12C
[5] = KRAS G12V FRET data IC50, Ras-Raf disruption
[6] = KRAS WT FRET data IC50, Ras-Raf disruption
[7] = KRAS G12D FRET data IC50, Ras-Raf disruption
[8] = KRAS G13C FRET data IC50, Ras-Raf disruption
[9] = Ras-Raf disruption, read-out: KRAS G12C FRET data IC50
[10] = Ras-Raf disruption, read-out: KRAS G13D FRET data IC50
[11] = Ras-Raf disruption, read-out: KRAS G12S FRET data IC50
[12] = NRAS G12C, read-out: NRAS G12C FRET data IC50
[13] = Ras-Raf disruption, read-out: KRAS G12V FRET data IC50
[14] = Ras-Raf disruption, read-out: KRAS WT FRET data IC50
[15] = Ras-Raf disruption, read-out: KRAS G12D FRET data IC50
[16] = Ras-Raf disruption, read-out: KRAS G13C FRET data IC50

Sequence of KRAS G12C (P01116 1-169 isoform P01116-2 G12C limits assumed): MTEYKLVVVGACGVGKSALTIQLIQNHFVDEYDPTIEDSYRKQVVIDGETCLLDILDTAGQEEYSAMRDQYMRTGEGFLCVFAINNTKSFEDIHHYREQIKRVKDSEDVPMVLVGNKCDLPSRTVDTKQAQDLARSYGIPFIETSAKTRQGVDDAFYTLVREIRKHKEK
Sequence of KRAS G12C (P62937 whole entry): as the sequence (P62937 whole entry) above

SMILES | IC50 (KRAS G12C; [1]) [nM] | IC50 (KRAS G13D; [2]) [nM] | IC50 (KRAS G12S; [3]) [nM] | IC50 (NRAS G12C; [4]) [nM] | IC50 (KRAS G12V; [5]) [nM] | IC50 (KRAS WT; [6]) [nM] | IC50 (KRAS G12D; [7]) [nM] | IC50 (KRAS G13C; [8]) [nM] | IC50 (KRAS G12C; [9]) [nM] | IC50 (KRAS G13D; [10]) [nM] | IC50 (KRAS G12S; [11]) [nM] | IC50 (NRAS G12C; [12]) [nM] | IC50 (KRAS G12V; [13]) [nM] | IC50 (KRAS WT; [14]) [nM] | IC50 (KRAS G12D; [15]) [nM] | IC50 (KRAS G13C; [16]) [nM]
CCn1c(-c2cccnc2[C@H](C)OC)c2c3cc(ccc31)-c1csc(n1)C[C@H](NC(=O)[C@H](C1CCCC1)N(C)C(=O)CN(C)C(=O)[C@H]1CN1)C(=O)N1CCC[C@H](N1)C(=O)OCC(C)(C)C2 [Example 132] | 100 to 1000 | 1000 to 10000 | 1000 to 10000 | 100 to 1000 | 1000 to 10000 | 1000 to 10000 | 1000 to 10000 | 1000 to 10000 |  |  |  |  |  |  |  | 
CCn1c(-c2cccnc2[C@H](C)OC)c2c3cc(ccc31)-c1cccc(c1)C[C@H](NC(=O)[C@H](C(C)C)N(C)C(=O)[C@H]1C[C@H](N=C=NCCOC)C1)C(=O)N1CCC[C@H](N1)C(=O)OCC(C)(C)C2 [Example 78] |  |  |  |  |  |  |  |  | 10 to 100 | > 10000 | 1000 to 10000 | 10 to 100 | 1000 to 10000 | 1000 to 10000 | 1000 to 10000 | 10 to 100
CCn1c(-c2cccnc2[C@H](C)OC)c2c3cc(ccc31)-c1cc(O)cc(c1)C[C@H](NC(=O)[C@H](C(C)C)N(C)C(=O)[C@@]1(F)CCN(C(=O)[C@H]3CN3)C1)C(=O)N1CCC[C@H](N1)C(=O)OCC(C)(C)C2 [Example 171] |  |  |  |  |  |  |  |  | < 10 | 10 to 100 | 10 to 100 | < 10 | 10 to 100 | 10 to 100 | 10 to 100 | 10 to 100
CCn1c(-c2cccnc2[C@H](C)OC)c2c3cc(ccc31)-c1cc(O)cc(c1)C[C@H](NC(=O)[C@H](C(C)C)N(C)C(=O)[C@H]1CCN1C(=O)[C@H]1CN1)C(=O)N1CCC[C@H](N1)C(=O)OCC(C)(C)C2 [Example 158] | 10 to 100 | 10 to 100 | 10 to 100 | 10 to 100 | 10 to 100 | 10 to 100 | 100 to 1000 | 10 to 100 |  |  |  |  |  |  |  | 
CCn1c(-c2cccnc2[C@H](C)OC)c2c3cc(ccc31)-c1cc(O)cc(c1)C[C@H](NC(=O)[C@H](C(C)C)N(C)C(=O)N1CCN(C(=O)[C@@H]3CN3)C(=O)C1)C(=O)N1CCC[C@H](N1)C(=O)OCC(C)(C)C2 [Example 194] |  |  |  |  |  |  |  |  | 100 to 1000 | 10 to 100 | 100 to 1000 | 100 to 1000 | 100 to 1000 | 100 to 1000 | 100 to 1000 | 10 to 100
CCn1c(-c2cccnc2[C@H](C)OC)c2c3cc(ccc31)-c1cc(O)cc(c1)C[C@H](NC(=O)[C@H](C(C)C)N(C)C(=O)c1ccc([C@H]3CN3)cc1)C(=O)N1CCC[C@H](N1)C(=O)OCC(C)(C)C2 [Example 145] |  |  |  |  |  |  |  |  | 100 to 1000 | 100 to 1000 | 100 to 1000 | 100 to 1000 | 100 to 1000 | 100 to 1000 | 1000 to 10000 | 10 to 100
CCn1c(-c2cccnc2[C@H](C)OC)c2c3cc(ccc31)-c1cc(O)cc(c1)C[C@H](NC(=O)[C@H](C(C)C)N1CC[C@@H](NC(=O)[C@@H]3CN3)C1=O)C(=O)N1CCC[C@H](N1)C(=O)OCC(C)(C)C2 [Example 129] | 10 to 100 | 10 to 100 | 10 to 100 | 10 to 100 | 100 to 1000 | 10 to 100 | 100 to 1000 | < 10 |  |  |  |  |  |  |  | 
CCn1c(-c2cccnc2[C@H](C)OC)c2c3cc(ccc31)-c1cc(O)cc(c1)C[C@H](NC(=O)[C@H](C(C)C)N(C)C(=O)[C@H]1CCN1C(=O)[C@@H]1CN1)C(=O)N1CCC[C@H](N1)C(=O)OCC(C)(C)C2 [Example 157] | 10 to 100 | 10 to 100 | 10 to 100 | 10 to 100 | 10 to 100 | 10 to 100 | 100 to 1000 | 10 to 100 |  |  |  |  |  |  |  | 
CCn1c(-c2cccnc2[C@H](C)OC)c2c3cc(ccc31)-c1cccc(c1)C[C@H](NC(=O)[C@H](C(C)C)N(C)C(=O)CCN=C=NCCOC)C(=O)N1CCC[C@H](N1)C(=O)OCC(C)(C)C2 [Example 74] |  |  |  |  |  |  |  |  | 10 to 100 | 1000 to 10000 | 1000 to 10000 | 10 to 100 | 1000 to 10000 | 1000 to 10000 | 100 to 1000 | 100 to 1000
CCn1c(-c2cccnc2[C@H](C)OC)c2c3cc(ccc31)-c1cc(O)cc(c1)C[C@H](NC(=O)[C@H](C(C)C)N(C)C(=O)[C@H]1CCN(S(=O)(=O)[C@@H]3CN3C)C1)C(=O)N1CCC[C@H](N1)C(=O)OCC(C)(C)C2 (single isomer, unassigned) [Example 56] |  |  |  |  |  |  |  |  | 10 to 100 | 100 to 1000 | 100 to 1000 | 100 to 1000 | 100 to 1000 | 100 to 1000 | 100 to 1000 | 10 to 100
CCn1c(-c2cnccc2COC)c2c3cc(ccc31)-c1cccc(c1)C[C@H](NC(=O)[C@H](C(C)C)N(C)C(=O)CC(C)(C)N=C=Nc1ccc(OC)cc1)C(=O)N1CCC[C@H](N1)C(=O)OCC(C)(C)C2 [64 A and B] |  |  |  |  |  |  |  |  | > 10000 | > 10000 | > 10000 | > 10000 | > 10000 | > 10000 | > 10000 | > 10000
CCn1c(-c2cnccc2COC)c2c3cc(ccc31)-c1cc(O)cc(c1)C[C@H](NC(=O)[C@H](C(C)C)N(C)C(=O)CN(C)C(=O)[C@H]1[C@@H](C(=O)OC)N1[S@+]([O-])C(C)(C)C)C(=O)N1CCC[C@H](N1)C(=O)OCC(C)(C)C2 (stereo partly shown) [Example 48] |  |  |  |  |  |  |  |  | 10 to 100 | 100 to 1000 | 10 to 100 | 10 to 100 | 10 to 100 | 100 to 1000 | 100 to 1000 | 10 to 100
CCn1c(-c2cccnc2[C@H](C)OC)c2c3cc(ccc31)-c1cc(O)cc(c1)C[C@H](NC(=O)[C@H](C(C)C)N(C)C(=O)C1CC3(C1)CN(C(=O)[C@@H]1CN1)C3)C(=O)N1CCC[C@H](N1)C(=O)OCC(C)(C)C2 [Example 180] |  |  |  |  |  |  |  |  | 100 to 1000 | 100 to 1000 | 100 to 1000 | 100 to 1000 | 100 to 1000 | 100 to 1000 | 1000 to 10000 | 10 to 100
CCn1c(-c2cccnc2[C@H](C)OC)c2c3cc(ccc31)-c1cccc(c1)C[C@H](NC(=O)[C@H](C(C)C)N(C)C(=O)[C@H]1C[C@H](N=C=NCc3ccccc3OC)C1)C(=O)N1CCC[C@H](N1)C(=O)OCC(C)(C)C2 [Example 77] |  |  |  |  |  |  |  |  | 10 to 100 | > 10000 | 1000 to 10000 | 10 to 100 | 1000 to 10000 | 1000 to 10000 | 1000 to 10000 | 10 to 100
CCn1c(-c2cccnc2[C@H](C)OC)c2c3cc(ccc31)-c1cc(O)cc(c1)C[C@H](NC(=O)[C@H](C(C)C)N1CCC3(CCN(C(=O)[C@H]4CN4)C3)C1=O)C(=O)N1CCC[C@H](N1)C(=O)OCC(C)(C)C2 (stereo partly shown) [Example 59] |  |  |  |  |  |  |  |  | 10 to 100 | 100 to 1000 | 10 to 100 | < 10 | 10 to 100 | 10 to 100 | 10 to 100 | 10 to 100
CCn1c(-c2cccnc2[C@H](C)OC)c2c3cc(ccc31)-c1cc(O)cc(c1)C[C@H](NC(=O)[C@H](C(C)C)N(C)C(=O)N1CC(NC(=O)[C@H]3CN3)C1)C(=O)N1CCC[C@H](N1)C(=O)OCC(C)(C)C2 (atropisomer, axis not shown) [Example 189] |  |  |  |  |  |  |  |  | 10 to 100 | 100 to 1000 | 100 to 1000 | 10 to 100 | 10 to 100 | 10 to 100 | 100 to 1000 | 10 to 100
CCn1c(-c2cccnc2[C@H](C)OC)c2c3cc(ccc31)-c1cc(O)cc(c1)C[C@H](NC(=O)[C@H](C(C)C)N(C)C(=O)c1ccc(NC(=O)[C@H]3CN3)cn1)C(=O)N1CCC[C@H](N1)C(=O)OCC(C)(C)C2 [Example 127] |  |  |  |  |  |  |  |  | 100 to 1000 | 100 to 1000 | 10 to 100 | 100 to 1000 | 100 to 1000 | 100 to 1000 | 100 to 1000 | 10 to 100
